In US20160120877A1, “PHARMACEUTICAL COMPOSITIONS FOR SUSTAINED DELIVERY OF BENZODIAZEPINE ANTAGONISTS” (priority 2010, published 2016):

Columns and labels:
[1] = test system: methamphetamine cravings; conditions: clinical trials, along with hydroxyzine and gabapentin; cited from earlier work
[2] = Dialysis diffusion: effect of concentration and sample size (same quantity of flumazenil); type: physicochemical
Experimental: (§1) Dialysis tubing cellulose membrane was cut into approximately 8 cm lengths, washed with hot water for 3 hours. Tubing was then treated with 0.3% (w/v) solution of sodium sulfide at 80° C. for 1 minute, washed with hot water (60° C.) for 2 minutes and followed by acidification with 0.2% sulfuric acid. Tubing was then rinsed with hot water to remove the acid. Test formulations were added, the tubing closed with nylon closures and placed in the dialysate. At various time periods, the dialysate was sampled and the flumazenil released measured by HPLC assay.
Experiments were conducted to test the effect of different concentrations and different sample sizes (but same quantity of flumazenil) on diffusion rate.
(§2) As described in 1.1 with 600 ml of phosphate buffer pH 4.0 as dialysate.
(§3) A=0.25 g of a 1.5% flumazenil solution in NMP
B=0.125 g of a 3% flumazenil solution in NMP
C=0.083 g of a 4.5% flumazenil solution in NMP

[3] = Dialysis diffusion: effect of sample concentration; type: physicochemical
Experimental: as §1
Experiments were conducted to test the effect of sample concentration on diffusion rate.
as §2, §3
B=0.25 g of a 3.0% flumazenil solution in NMP
C=0.25 g of a 4.5% flumazenil solution in NMP

[4] = sample A1 (0.25 g of 1.5% solution in NMP), 1 h
[5] = sample A1 (0.25 g of 1.5% solution in NMP), 2 h
[6] = sample A1 (0.25 g of 1.5% solution in NMP), 3 h
[7] = sample A2 (0.25 g of 1.5% solution in NMP), 1 h
[8] = sample A2 (0.25 g of 1.5% solution in NMP), 2 h
[9] = sample A2 (0.25 g of 1.5% solution in NMP), 3 h
[10] = sample A (0.25 g of 1.5% solution in NMP)

% flumazenil released [2, 4]: 91.0% | % flumazenil released [2, 5]: 100.3% | % flumazenil released [2, 6]: 101.0% | % flumazenil released ([2]; sample A1 (0.25 g of 1.5% solution in NMP), 4 h): 100.9% | % flumazenil released ([2]; sample A1 (0.25 g of 1.5% solution in NMP), 5 h): 101.0% | % flumazenil released ([2]; sample A1 (0.25 g of 1.5% solution in NMP), 6 h): 100.8% | % flumazenil released [2, 7]: 93.2% | % flumazenil released [2, 8]: 100.7% | % flumazenil released [2, 9]: 100.9% | % flumazenil released ([2]; sample A2 (0.25 g of 1.5% solution in NMP), 4 h): 101.0% | % flumazenil released ([2]; sample A2 (0.25 g of 1.5% solution in NMP), 5 h): 100.6% | % flumazenil released ([2]; sample A2 (0.25 g of 1.5% solution in NMP), 6 h): 100.7% | precipitation in bags during the dialysis [2, 10]: no precipitation observed | % flumazenil released ([2]; sample B1 (0.125 g of 3% solution in NMP), 1 h): 92.3% | % flumazenil released ([2]; sample B1 (0.125 g of 3% solution in NMP), 2 h): 99.0% | % flumazenil released ([2]; sample B1 (0.125 g of 3% solution in NMP), 3 h): 100.4% | % flumazenil released ([2]; sample B1 (0.125 g of 3% solution in NMP), 4 h): 101.1% | % flumazenil released ([2]; sample B1 (0.125 g of 3% solution in NMP), 5 h): 100.9% | % flumazenil released ([2]; sample B1 (0.125 g of 3% solution in NMP), 6 h): 101.1% | % flumazenil released ([2]; sample B2 (0.125 g of 3% solution in NMP), 1 h): 80.6% | % flumazenil released ([2]; sample B2 (0.125 g of 3% solution in NMP), 2 h): 92.4% | % flumazenil released ([2]; sample B2 (0.125 g of 3% solution in NMP), 3 h): 97.3% | % flumazenil released ([2]; sample B2 (0.125 g of 3% solution in NMP), 4 h): 99.3% | % flumazenil released ([2]; sample B2 (0.125 g of 3% solution in NMP), 5 h): 100.3% | % flumazenil released ([2]; sample B2 (0.125 g of 3% solution in NMP), 6 h): 100.6% | precipitation in bags during the dialysis ([2]; sample B (0.125 g of 3% solution in NMP), rank A < B < C): precipitation was observed | % flumazenil released ([2]; sample C1 (0.083 g of 4.5% solution in NMP), 1 h): 56.1% | % flumazenil released ([2]; sample C1 (0.083 g of 4.5% solution in NMP), 2 h): 79.3% | % flumazenil released ([2]; sample C1 (0.083 g of 4.5% solution in NMP), 3 h): 92.3% | % flumazenil released ([2]; sample C1 (0.083 g of 4.5% solution in NMP), 4 h): 98.1% | % flumazenil released ([2]; sample C1 (0.083 g of 4.5% solution in NMP), 5 h): 100.1% | % flumazenil released ([2]; sample C1 (0.083 g of 4.5% solution in NMP), 6 h): 100.7% | % flumazenil released ([2]; sample C2 (0.083 g of 4.5% solution in NMP), 1 h): 43.5% | % flumazenil released ([2]; sample C2 (0.083 g of 4.5% solution in NMP), 2 h): 66.1% | % flumazenil released ([2]; sample C2 (0.083 g of 4.5% solution in NMP), 3 h): 82.3% | % flumazenil released ([2]; sample C2 (0.083 g of 4.5% solution in NMP), 4 h): 93.6% | % flumazenil released ([2]; sample C2 (0.083 g of 4.5% solution in NMP), 5 h): 99.2% | % flumazenil released ([2]; sample C2 (0.083 g of 4.5% solution in NMP), 6 h): 101.2% | precipitation in bags during the dialysis ([2]; sample C (0.083 g of 4.5% solution in NMP), rank A < B < C): precipitation was observed | % flumazenil released [3, 4]: 92.9% | % flumazenil released [3, 5]: 100.5% | % flumazenil released [3, 6]: 101.4% | % flumazenil released [3, 7]: 89.8% | % flumazenil released [3, 8]: 100% | % flumazenil released [3, 9]: 101.4% | precipitation during the dialysis [3, 10]: no precipitation was observed | % flumazenil released ([3]; sample B1 (0.25 g of 3.0% solution in NMP), 1 h): 62.1% | % flumazenil released ([3]; sample B1 (0.25 g of 3.0% solution in NMP), 2 h): 74.8% | % flumazenil released ([3]; sample B2 (0.25 g of 3.0% solution in NMP), 1 h): 62.0% | % flumazenil released ([3]; sample B2 (0.25 g of 3.0% solution in NMP), 2 h): 76.3% | precipitation during the dialysis ([3]; sample B (0.25 g of 3.0% solution in NMP)): Precipitation was observed | % flumazenil released ([3]; sample C1 (0.25 g of 4.5% solution in NMP), 1 h): 27.5% | % flumazenil released ([3]; sample C1 (0.25 g of 4.5% solution in NMP), 2 h): 40.4%
SMILES: CCOC(=O)c1ncn2c1CN(C)C(=O)c1cc(F)ccc1-2 [flumazenil, ethyl 8-fluoro-5,6-dihydro-5-methyl-6-oxo-4H-imidazo[1,5-a](1,4)benzodiazepine-3-carboxylate]
methamphetamine cravings [1]: substantially reduce methamphetamine cravings
